Source: PMC4515429, “Anti-Biofilm and Immunomodulatory Activities of Peptides That Inhibit Biofilms Formed by Pathogens Isolated from Cystic Fibrosis Patients” (Antibiotics, 2014)
Values after ≈ are worked out from the molar mass of the structure shown. Where two headings read alike, the source gives them in different places. Where a SMILES comes first, the peptide text is derived from it. Bridges are numbered along the chain shown (N, C = ends). Where no end group is shown, it is not given here. [ ]: non-standard residue; d: D form. The star is where a group is joined. X1 = CC[C@H](C)CCCCC(=O)*; Dab = NCC[C@H](N)C(=O)O

Assays:
P. aeruginosa PA14 [1] = system: P. aeruginosa PA14
Protocol: (§1) In addition to the wild type lab isolates Pseudomonas aeruginosa strains PAO1 and PA14, a variety of cystic fibrosis clinical isolates of P. aeruginosa and Burkholderia cepacia complex strains were utilized (Table 1). Planktonic cells from each of the P. aeruginosa and B. cepacia strains were grown in BM2 glucose or cation-adjusted Mueller-Hinton. The minimal inhibitory concentration (MIC) for peptides in brain-heart infusion (BHI) was assessed by the broth microdilution method with minor modifications for cationic peptides. […] MIC assays were performed in sterile 96-well polypropylene microtiter plates. […] The plates were incubated at 37 °C for 18 h.

B. cenocepacia 4813 = assay: Anti-biofilm activity of 1018 derivatives (Table 4); format: cell-based, Burkholderia cenocepacia; conditions: 15 µg/mL peptide
Protocol: Biofilm formation was initially analyzed using a static abiotic solid surface assay as described elsewhere [21]. Dilutions (1/100) of overnight cultures were incubated in BM2 glucose medium (62 mM potassium phosphate buffer (pH 7), 7 mM (NH4)2SO4, 2 mM MgSO4, 10 μM FeSO4, 0.4% (wt/vol) glucose, 0.5% (wt/vol) Casamino Acids) in polypropylene microtiter plates (Fisher Scientific, Waltham, MA, USA) in the presence of the different peptides for 22 h at 37 °C. Planktonic cells were removed and biofilm cells adhering to the side of the tubes were stained with crystal violet, extracted into ethanol, and the optical density at 595 nm (OD595) measured using a microtiter plate reader (Bio-Tek Instruments Inc., Winooski, VT, USA). Peptides were added at time zero (prior to adding the diluted, overnight cultures) at various concentrations, and the decrease in biofilm formation was recorded at 22 h for P. aeruginosa, Burkholderia and Methicillin-resistant Staphylococcus aureus isolates.

P. aeruginosa PA14 [2] = assay: Anti-biofilm activity, BioFlux apparatus; format: cell-based, Pseudomonas aeruginosa; conditions: 15 µg/mL peptide
[3] = system: planktonic cells of Burkholderia strains
Protocol: as §1

[4] = system: TNF-α production by human peripheral blood mononuclear cells; assay: LPS-induced TNF-α production in PBMCs, ELISA; format: cell-based; conditions: LPS-stimulated PBMCs, Figure 4B
Protocol: (§2) (A) Human peripheral blood mononuclear cells were subjected to 20 µg/mL and 100 µg/mL of HE1, HE4, HE10, HE12, and 1018 for 24 h. Monocyte chemotactic protein-1 (MCP-1) production was assessed using sandwich enzyme linked immunosorbent assay (ELISA). The level of MCP-1 induction was similar for HE1, HE4, HE10, and 1018 at 100 µg/mL; (B) LPS (20 ng/mL) was co-administered with 20 µg/mL of each of the aforementioned peptides for 24 h. The tumor necrosis factor-alpha (TNF-α) production in response to both stimulants was assessed using enzyme linked immunosorbent assay (ELISA) and compared to lipopolysaccharides (LPS) alone. […] Lactate dehydrogenase release from peripheral blood mononuclear cells (PBMCs) was measured to assess the toxicity of 20 µg/mL and 100 µg/mL of 1018 and its derivatives.
These studies were done as described previously. Briefly, human peripheral blood mononuclear cells (PBMCs) were isolated from the blood of healthy individuals obtained under University of British Columbia (UBC) human ethics approval. […] To assess chemokine induction after 24 h, the levels of chemokine MCP-1 (CCL2) were assessed in the supernatants three times independently using a sandwich ELISA kit (BioSource International, Grand Island, NY, USA). […] Secretion of TNF-α was monitored by capture ELISA (eBiosciences, San Diego, CA, USA) after 24 h.

P. aeruginosa PA14 [5] = assay: Flow cell biofilm assay, confocal microscopy; format: cell-based, Pseudomonas aeruginosa; conditions: 72 h, 37 °C, inhibition and eradication conditions, Syto-9/PI confocal imaging
Protocol: For biofilm prevention conditions, the peptides were added to the medium from the beginning of the experiment. For eradication experiments, bacteria were allowed to develop structured 2-day-old biofilms prior to peptide and antibiotics treatment for the following 24 h.
Biofilms were grown for 72 h, in the absence or presence of the desired concentration of the different peptides, at 37 °C in flow chambers with channel dimensions of 1 by 4 by 40 mm, and then stained and examined by confocal microscopy, as described previously. For biofilm prevention studies the peptide was present in the flow-through medium throughout the biofilm growth while for eradication experiments, biofilms were allowed to grow for 2 days, before treating them with peptide for the last 24 h of the experiment.

[6] = system: methicillin resistant Staphylococcus aureus (MRSA); assay: Biofilm inhibition in 96-well plates, static conditions; format: cell-based; conditions: polypropylene microtiter plates, BM2, 24 h, 37 °C, crystal violet, absorbance 595 nm
Protocol: Figure 3 Biofilm inhibitory activity against methicillin resistant Staphylococcus aureus (MRSA) in 96-well plates. […] Statistical significance was assessed using one-way ANOVA (*, p < 0.05; ***, p < 0.001; ****, p < 0.0001).

[7] = system: monocyte chemotactic protein-1 (MCP-1) production by human peripheral blood mononuclear cells; assay: MCP-1 induction in PBMCs, sandwich ELISA; format: cell-based; conditions: 24 h; for level of MCP-1 induction at 100 µg/mL: 100 µg/mL peptide; for MCP-1 induction: 20 and 100 µg/mL peptide, cf. untreated control
Protocol: as §2
These studies were done as described previously. Briefly, human peripheral blood mononuclear cells (PBMCs) were isolated from the blood of healthy individuals obtained under University of British Columbia (UBC) human ethics approval. PBMCs were diluted to 2 × 10^6 cells/ml in RPMI-1640 medium (Gibco®, Grand Island, NY, USA) supplemented with 10% fetal bovine serum (FBS). Subsequently, 250 µL of cells were seeded in each well of a 48-well dish. […] To assess chemokine induction after 24 h, the levels of chemokine MCP-1 (CCL2) were assessed in the supernatants three times independently using a sandwich ELISA kit (BioSource International, Grand Island, NY, USA). To look at the anti-inflammatory activity of the peptides in suppressing LPS-induced TNFα, P. aeruginosa LPS was added at a final concentration of 20 ng/mL as well as peptides at 20 μg/mL or 100 μg/mL. Secretion of TNF-α was monitored by capture ELISA (eBiosciences, San Diego, CA, USA) after 24 h.

P. aeruginosa = conditions: at one sixteenth the minimum inhibitory concentration (MIC); cited from earlier work
From the text: Cationic host defense (antimicrobial) peptides represent a novel alternative to conventional antibiotics. […] Similar results were subsequently shown by other groups. This encouraged t ...

[8] = system: P. aeruginosa 3330 (Classic)
Protocol: as §1

[9] = system: B. cenocepacia CEP509 (IIIb); conditions: 18 h
Protocol: as §1

[10] = system: B. cenocepacia C5424 (IIIa); conditions: 18 h
Protocol: as §1

[11] = system: P. aeruginosa 2639 (Mucoid)
Protocol: as §1

[12] = system: B. cenocepacia 4813 (IIIa); conditions: 18 h
Protocol: as §1

[13] = system: P. aeruginosa C2773 (Classic)
Protocol: as §1

[14] = system: P. aeruginosa 4020 (Classic)
Protocol: as §1

[15] = system: P. aeruginosa 7633 (Entire)
Protocol: as §1

[16] = system: P. aeruginosa C4278 (Mucoid)
Protocol: as §1

[17] = system: P. aeruginosa C4276 (Classic)
Protocol: as §1

[18] = system: P. aeruginosa 2631 (Classic)
Protocol: as §1

[19] = system: B. cenocepacia CEP0055 (IIIb); conditions: 18 h
Protocol: as §1

[20] = system: P. aeruginosa 4608 (Mucoid)
Protocol: as §1

B. dolosa CEP0021 (VI) = conditions: 18 h
Protocol: as §1

[21] = system: B. ambifaria CEP0996 (VII); conditions: 18 h
Protocol: as §1

[22] = system: P. aeruginosa 3195 (Classic)
Protocol: as §1

P. aeruginosa PA01 = conditions: 18 h
Protocol: as §1

[23] = system: P. aeruginosa 7632 (Classic)
Protocol: as §1

B. stabilis C6061 (IV) = conditions: 18 h
Protocol: as §1

[24] = system: P. aeruginosa 1172 (Classic)
Protocol: as §1

[25] = system: B. multivorans D2661 (Genomovar II); conditions: 18 h
Protocol: as §1

[26] = planktonic cells, broth microdilution, BHI, 5 × 10^5 CFU/mL, 37 °C, 18 h, performed at least three times
[27] = planktonic cells, broth microdilution, BHI, 5 × 10^5 CFU/mL, 37 °C, performed at least three times

RFKRVARVIW [HE12]
MIC (P. aeruginosa PA14 [1]; PA14, 18 h): 80 µg/mL

VRLIRAVRAWRV [HE2, 1018 derivative, break hydrophobicity; maintain charge]
Anti-Biofilm Activity (% Decrease in Biofilm) (B. cenocepacia 4813): 24% | Anti-Biofilm Activity (% Decrease in Biofilm) (P. aeruginosa PA14 [2]): 42%

KRWWKWIRW-NH2 (C-terminus assumed) [HHC-10]
MIC against planktonic cells of Burkholderia strains [3]: > 256 µg/mL

VRLI--VRIWRR [HE10, 1018 derivative, truncated to remove hydrophobic patch]
suppression of TNF-α production [4]: strongly suppressing the production of TNF-α | anti-biofilm activity in flow cells (P. aeruginosa PA14 [5]): strong anti-biofilm activity comparable with that of 1018 | biofilm inhibitory activity against MRSA compared to 1018 [6]: notably more active | level of MCP-1 induction at 100 µg/mL [7]: similar | MCP-1 induction [7]: significantly induced MCP-1

RRWIRVAVILRV [HE1]
Anti-Biofilm Activity (% Decrease in Biofilm) (P. aeruginosa PA14 [2]): 93% | level of MCP-1 induction at 100 µg/mL [7]: similar | MCP-1 induction [7]: significantly induced MCP-1

CC[C@H](C)[C@H](NC(=O)[C@H](CCCCN)NC(=O)[C@H](CCC(=O)O)NC(=O)[C@H](CCCCN)NC(=O)[C@H](CO)NC(=O)[C@H](CCCCN)NC(=O)[C@H](CCCNC(=N)N)NC(=O)[C@H](Cc1ccccc1)NC(=O)[C@H](Cc1ccccc1)NC(=O)[C@H](CC(=O)O)NC(=O)CNC(=O)[C@H](CC(C)C)NC(=O)[C@@H](N)CC(C)C)C(=O)NCC(=O)N[C@@H](CCCCN)C(=O)N[C@@H](CCC(=O)O)C(=O)N[C@@H](Cc1ccccc1)C(=O)N[C@@H](CCCCN)C(=O)N[C@@H](CCCNC(=N)N)C(=O)N[C@H](C(=O)N[C@H](C(=O)N[C@@H](CCC(N)=O)C(=O)N[C@@H](CCCNC(=N)N)C(=O)N[C@H](C(=O)N[C@@H](CCCCN)C(=O)N[C@@H](CC(=O)O)C(=O)N[C@@H](Cc1ccccc1)C(=O)N[C@@H](CC(C)C)C(=O)N[C@@H](CCCNC(=N)N)C(=O)N[C@@H](CC(N)=O)C(=O)N[C@@H](CC(C)C)C(=O)N[C@H](C(=O)N1CCC[C@H]1C(=O)N[C@@H](CCCNC(=N)N)C(=O)N[C@H](C(=O)N[C@@H](CCC(=O)O)C(=O)N[C@@H](CO)C(=O)O)[C@@H](C)O)C(C)C)[C@@H](C)CC)C(C)C)[C@@H](C)CC [LL-37]
decrease in biofilm formation (P. aeruginosa): 50% | MIC [8, 26]: >128 µg/mL | MIC [9, 27]: >512 µg/mL | MIC [10, 27]: >256 µg/mL | MIC (P. aeruginosa PA14 [1]; [26]): 32 µg/mL (≈ 7.12 µM) | MIC [11, 26]: >128 µg/mL | MIC [12, 27]: >256 µg/mL | MIC [13, 26]: 256 µg/mL (≈ 57 µM) | MIC [14, 26]: >128 µg/mL | MIC [15, 26]: >128 µg/mL | MIC [16, 26]: >256 µg/mL | MIC [17, 26]: 256 µg/mL (≈ 57 µM) | MIC [18, 26]: >256 µg/mL | MIC [19, 27]: >512 µg/mL | MIC [20, 26]: >128 µg/mL | MIC (B. dolosa CEP0021 (VI); [27]): >512 µg/mL | MIC [21, 27]: >512 µg/mL | MIC [22, 26]: 64 µg/mL (≈ 14.2 µM) | MIC (P. aeruginosa PA01; [27]): 32 µg/mL (≈ 7.12 µM) | MIC [23, 26]: 256 µg/mL (≈ 57 µM) | MIC (B. stabilis C6061 (IV); [27]): >512 µg/mL | MIC [24, 26]: >128 µg/mL | MIC [25, 27]: >512 µg/mL

VRLIWAVRIWRR [HE4]
MIC (P. aeruginosa PA14 [1]; PA14, 18 h): 80 µg/mL

CC[C@H](C)CCCCC(=O)N[C@@H](CCN)C(=O)N[C@H](C(=O)N[C@@H](CCN)C(=O)N[C@H]1CCNC(=O)[C@H]([C@@H](C)O)NC(=O)[C@H](CCN)NC(=O)[C@H](CCN)NC(=O)[C@H](CC(C)C)NC(=O)[C@@H](Cc2ccccc2)NC(=O)[C@H](CCN)NC1=O)[C@@H](C)O [Polymyxin B] (X1-[Dab]T[Dab][Dab][Dab][dF]L[Dab][Dab]T; lactam 4-C (inferred); N-terminus assumed)
MIC ([8]; 3330 (Classic, 18 h)): 2 µg/mL (≈ 1.66 µM) | MIC [9]: >128 µg/mL | MIC [10]: >128 µg/mL | MIC (P. aeruginosa PA14 [1]; PA14, 18 h): 2 µg/mL (≈ 1.66 µM) | MIC ([11]; 2639 (Mucoid, 18 h)): 2 µg/mL (≈ 1.66 µM) | MIC [12]: >128 µg/mL | MIC ([13]; C2773 (Classic, 18 h)): 4 µg/mL (≈ 3.32 µM) | MIC ([14]; 4020 (Classic, 18 h)): 2 µg/mL (≈ 1.66 µM) | MIC ([15]; 7633 (Entire, 18 h)): 2 µg/mL (≈ 1.66 µM) | MIC ([16]; C4278 (Mucoid, 18 h)): 2 µg/mL (≈ 1.66 µM) | MIC ([17]; C4276 (Classic, 18 h)): 2 µg/mL (≈ 1.66 µM) | MIC ([18]; 2631 (Classic, 18 h)): 4 µg/mL (≈ 3.32 µM) | MIC [19]: >128 µg/mL | MIC ([20]; 4608 (Mucoid, 18 h)): 2 µg/mL (≈ 1.66 µM) | MIC (B. dolosa CEP0021 (VI)): >128 µg/mL | MIC [21]: >128 µg/mL | MIC ([22]; 3195 (Classic, 18 h)): 2 µg/mL (≈ 1.66 µM) | MIC (P. aeruginosa PA01): 2 µg/mL (≈ 1.66 µM) | MIC ([23]; 7632 (Classic, 18 h)): 2 µg/mL (≈ 1.66 µM) | MIC (B. stabilis C6061 (IV)): >128 µg/mL | MIC ([24]; 1172 (Classic, 18 h)): 2 µg/mL (≈ 1.66 µM) | MIC [25]: >128 µg/mL

VRWARVARILRV [HE3, 1018 derivative, reverse of HE2]
Anti-Biofilm Activity (% Decrease in Biofilm) (B. cenocepacia 4813): 21% | Anti-Biofilm Activity (% Decrease in Biofilm) (P. aeruginosa PA14 [2]): 31%

KRWWKWWRR-NH2 (C-terminus assumed) [HHC-36]
MIC against planktonic cells of Burkholderia strains [3]: > 256 µg/mL
